Common to all, as to test: NCI-60 cell line screen, 48 h
The test system of assay [1] is SK-MEL-2 melanoma.
For assay [2], the system named is MDA-N.
The subject of assay [3] is PC-3 prostate.
In assay [4] the test system is UACC-62 melanoma.
Assay [5] relates to SN12C renal.
In assay [6] the test system is IGROV1 ovarian.
In assay [7] the test system is SR leukemia.
In assay [8] the test system is TK-10 renal.
In assay [9] the test system is HCT-116 colon.
Assay [10] concerns OVCAR-5 ovarian.
Assay [11] has as its system MALME-3M melanoma.

TGI data for 26 compounds are collected here from PubChem BioAssay (NCI).

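Where inhibition never reached the appropriate level, the endpoint shown equals the highest concentration tested. Otherwise, values were interpolated linearly from a five-concentration, 48-hour dose response in 96-well plates. TGI: total growth inhibition.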 Bounds are passed on as bounds.

With `CC[C@@H](/C=C\CCC(=O)C[C@H](O)CCC=C(C)C)O[Si](C(C)C)(C(C)C)C(C)C`, the TGI in assay [1], in assay [2], in [3], in [4], in [5] and in assay [6] was above 100 µM in each case. For the same compound, the TGI in assay [7], in assay [8], in [9] and in [10] was above 100 µM throughout.
As to `CC(C)[C@@H]1ON1C(C)c1ccccc1` (stereo partly specified), the TGI in [2], in assay [3], in [4], in assay [5], in assay [6] and in assay [11] was above 100 µM in each case. The TGI in [7], in [8], in [9] and in [10] was above 100 µM throughout.
Turning to `CCOc1cc(NC(C)=O)ccc1C(=O)NN1C(=O)C(Cl)C1c1ccco1` (stereo unspecified), the TGI worked out at 37.3 µM in [1]; 36.1 µM in assay [2]; 32.3 µM in [3]; 25.6 µM in assay [4]; 32.8 µM in assay [5]; 28.8 µM in assay [6]. Also, the TGI in assay [11] turned out to be 24.6 µM; in assay [7], 35.9 µM; in assay [8], 31.3 µM; in assay [9], 49.3 µM; in assay [10], 36.4 µM.
As to `C/C(=C/CC[C@]1(CO)CC[C@]2(CO)[C@H](CC[C@@H]3[C@@]4(C)CC[C@H](OC5OCC(O)C(O)C5OC5OC(CO)C(O)C(O)C5O)C(C)(C)[C@@H]4CC[C@]32C)[C@H]1O)CO` (stereo partly specified), the TGI in assay [2], in [3], in assay [4], in [5], in assay [6] and in assay [11] was above 100 µM throughout. Moreover, the TGI in assay [7], in [8], in assay [9] and in assay [10] was above 100 µM throughout.
With `CCN(CC)CCNCc1cc(Cl)cc2c1OCOC2`, the TGI in [1], in [2], in [3], in [4], in [5] and in assay [6] was above 10 µM in each case. Also, the TGI in assay [11], in assay [7], in [8], in [9] and in assay [10] was above 10 µM throughout.
Take `CCOC(=O)c1ccc(C(=O)C(C(C)=O)C(=O)OC(C)(C)C)[nH]1` (stereo unspecified): the TGI in assay [1], in [2], in assay [3], in [4], in [5] and in assay [6] was above 100 µM throughout. The TGI in [11], in assay [7], in assay [9] and in assay [10] was above 100 µM in each case.
`O[C@H]1[C@H](O)[C@@H](O)[C@@]2(O)C[C@@H](O)[C@@H]1N2`: the TGI in assay [2], in assay [3], in [4], in assay [5], in [6] and in assay [11] was above 100 µM each time. Further, the TGI in assay [7], in assay [8] and in assay [9] was above 100 µM each time.
In the case of `C=CCOC(=O)C1C2OC3(C(C(=O)OC)=C2C(=O)OC)c2ccccc2CCC13` (stereo unspecified), the TGI in assay [1], in [2], in assay [3], in assay [4], in [5] and in [6] was above 10 µM each time. The TGI in assay [11], in [7], in [8], in assay [9] and in assay [10] was above 10 µM in each case.
For the compound `CCNC1=C(NC(=O)CC)C(=O)c2ccccc2C1=O`, the TGI was above 100 µM in assay [2]; above 100 µM in assay [3]; above 100 µM in assay [4]; above 100 µM in [5]; above 100 µM in [6]; 60.1 µM in assay [11]. In addition, the TGI in [7], in assay [8], in assay [9] and in [10] was above 100 µM each time.
As to `COC12c3ccccc3-c3ccccc3C1[C@H]1C(=O)OC(=O)[C@H]12` (stereo partly specified), the TGI in [1], in assay [2], in assay [3], in [5], in [6] and in assay [11] was above 10 µM each time. For the same compound, the TGI in assay [7], in [8] and in assay [10] was above 10 µM in each case.
`Cc1ccc(/C(O)=C/C(=O)C(=O)NN=C(c2ccccc2)c2ccccc2)cc1`: the TGI in assay [1], in assay [2], in assay [3], in assay [4], in assay [6] and in assay [11] was above 100 µM throughout. Besides, the TGI in assay [7], in assay [8], in assay [9] and in assay [10] was above 100 µM throughout.
For the compound `COc1ccc(CSc2ccccc2Cn2cccc2)cc1OC`, the TGI in [2], in [4], in assay [5], in assay [6], in [11] and in assay [7] was above 100 µM in each case. Also, the TGI in assay [8], in assay [9] and in assay [10] was above 100 µM in each case.
Take `O=C(Nc1cccc(F)c1)c1cc2ccc(O)cc2oc1=Nc1ccccc1F`: the TGI in [1] is 18.7 µM; in assay [2], 17.7 µM; in assay [3], 24.3 µM; in assay [4], 24 µM; in assay [5] it was 22.5 µM; in [6], 7.44 µM. Besides, the TGI turned out to be 18.6 µM in assay [11], 39.5 µM in assay [7], 12.9 µM in assay [9] and 36.1 µM in [10].
In the case of `Cc1ccc2nc(NC(=O)/C(Cc3nc4ccc(Cl)cc4[nH]c3=O)=N\NC(C)(C)C)sc2c1`, the TGI in [1], in assay [2], in assay [3], in assay [4], in assay [5] and in assay [7] was above 100 µM each time. Besides, the TGI in assay [9] and in assay [10] was above 100 µM throughout.
As for `COc1ccc(-n2cnc3c(NC(CCSC)C(=O)O)ncnc32)cc1` (stereo unspecified), the TGI in [1], in assay [2], in assay [3], in [4], in assay [5] and in assay [6] was above 100 µM each time. Also, the TGI in assay [7], in assay [8], in assay [9] and in assay [10] was above 100 µM in each case.
With `COc1ccc(C(=O)c2[nH]c(Nc3ccc(Cl)cc3)c(C(=S)Nc3ccccc3)c2N)cc1`, the TGI in [1], in assay [2], in [4], in assay [5], in assay [6] and in assay [11] was above 100 µM throughout. For the same compound, the TGI in assay [7], in assay [8], in assay [9] and in [10] was above 100 µM throughout.
Regarding `CC1(O)OC(=O)C2=C1CCC1C2CCC2(C)C(O)CCC12` (stereo unspecified), the TGI in assay [2], in assay [4], in assay [5], in [6], in assay [11] and in [7] was above 100 µM in each case. The TGI in assay [8], in assay [9] and in [10] was above 100 µM each time.
Take `C#CCOCC12C=CC(O1)C1C(=O)OCC12` (stereo unspecified): the TGI in assay [2], in [3], in assay [4], in assay [5], in assay [6] and in assay [11] was above 100 µM in each case. The TGI in assay [7], in assay [8], in [9] and in assay [10] was above 100 µM in each case.
With `COc1cc([C@@H]2c3cc(O)c(OC)cc3C=C(C(N)=O)[C@H]2C(N)=O)ccc1O`, the TGI in assay [2], in assay [3], in assay [5], in [6], in assay [11] and in assay [7] was above 100 µM in each case. Also, the TGI in assay [9] and in [10] was above 100 µM throughout.
Consider `CCOC(=O)[C@H](Cc1ccc(O)cc1)N=C1[C@H]2CCC[C@]1(O)[C@@](C)([N+](=O)[O-])C2`, for which the TGI in [2], in assay [4], in assay [5], in [6], in [11] and in assay [7] was above 100 µM each time. Further, the TGI in [8], in assay [9] and in assay [10] was above 100 µM in each case.
Regarding `CC1OC(OC2C(OC(=O)[C@@H]3CC(C)(C)C[C@H]4C5=CC[C@@H]6[C@@]7(C)C[C@H](O)[C@H](OC8OC(CO)C(O)C(O)C8O)[C@@](C)(CO)[C@@H]7[C@H](O)C[C@@]6(C)[C@]5(C)CC[C@@]34C)OCC(O)C2O)C(O)C(O)C1O` (stereo partly specified), the TGI in assay [1], in assay [2], in assay [3], in [4], in [5] and in assay [6] was above 7.5 µM in each case. Besides, the TGI in assay [11], in assay [8], in assay [9] and in [10] was above 7.5 µM throughout.
Regarding `CSCCC(NC(=O)Cc1ccc(C(=O)c2ccccc2)cc1)C(=O)O` (stereo unspecified), the TGI in [1], in assay [2], in assay [3], in [4], in assay [5] and in [6] was above 100 µM in each case. Moreover, the TGI in assay [11], in assay [8], in assay [9] and in assay [10] was above 100 µM in each case.
Regarding `CC1=NN(C(=O)CSc2nc3ccc(I)cc3c(=O)n2Cc2ccccc2)C(=O)C1`, the TGI is 41 µM in [1]; above 100 µM in assay [2]; 49.7 µM in assay [3]; above 100 µM in assay [4]; above 100 µM in assay [5]; 65.4 µM in assay [6]. The TGI in [7] is 74 µM; in assay [8] it was above 100 µM; in assay [9] it was above 100 µM; in [10] it was above 100 µM.
Consider `CC(=O)OCC1OC(n2c(=O)[nH]c(=O)c3sccc32)C(Br)C1OC(C)=O` (stereo unspecified), for which the TGI in assay [1], in [2], in assay [3], in assay [5], in assay [6] and in assay [11] was above 100 µM throughout. Besides, the TGI in [7], in [8], in assay [9] and in assay [10] was above 100 µM each time.
Consider `O=C(CC(=O)Nc1ccccc1)N/N=C/c1cc(N=Nc2ccc(Br)cc2)ccc1O`, for which the TGI is above 10 µM in [2]; above 10 µM in assay [4]; above 10 µM in [5]; above 10 µM in assay [6]; above 10 µM in assay [11]; 9.75 µM in assay [7]. The TGI in assay [8] was above 10 µM.
As for `COc1cccc(NC(=O)C(C#N)=C(SC)SC)c1`, the TGI in [1], in assay [2], in [3], in assay [4], in [5] and in assay [6] was above 100 µM throughout. The TGI in assay [11], in assay [8], in [9] and in assay [10] was above 100 µM throughout.
